Data on four compounds can be found in article PMC3823026, “Protein–Protein Interaction Regulates the Direction of Catalysis and Electron Transfer in a Redox Enzyme Complex” (Journal of the American Chemical Society, 2013).

What all share (format): biochemical
The target in test [1] is T1, CymA (Shewanella oneidensis, UniProt Q8E8S0).
T1 construct: full-length recombinant tetraheme CymA (24 kDa), isolated from MR-1, reconstituted in POPC/cardiolipin membrane, no Fcc3
T1 sequence (Q8E8S0 1-187): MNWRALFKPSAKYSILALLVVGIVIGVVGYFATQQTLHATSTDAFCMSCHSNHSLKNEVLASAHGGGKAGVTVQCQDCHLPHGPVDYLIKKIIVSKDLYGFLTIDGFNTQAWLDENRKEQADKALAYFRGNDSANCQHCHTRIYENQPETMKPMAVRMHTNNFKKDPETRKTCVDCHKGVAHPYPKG
The test can be described thus: cyclic voltammetry, catalytic oxidation current with dithionite (menaquinone reduction). Particulars: 1 mM dithionite, 1% (w/w) MQ-7, pH 7.4, 21 °C.

Test [2] addresses T2, CymA-Fcc3 complex (Shewanella oneidensis, UniProt Q8E8S0).
T2 construct: isolated from MR-1; with Fumarate reductase (cytochrome), flavocytochrome c3
T2 sequence (Q8E8S0 1-187): T1 sequence (Q8E8S0 1-187)
T2 sequence (P83223 26-596 partner): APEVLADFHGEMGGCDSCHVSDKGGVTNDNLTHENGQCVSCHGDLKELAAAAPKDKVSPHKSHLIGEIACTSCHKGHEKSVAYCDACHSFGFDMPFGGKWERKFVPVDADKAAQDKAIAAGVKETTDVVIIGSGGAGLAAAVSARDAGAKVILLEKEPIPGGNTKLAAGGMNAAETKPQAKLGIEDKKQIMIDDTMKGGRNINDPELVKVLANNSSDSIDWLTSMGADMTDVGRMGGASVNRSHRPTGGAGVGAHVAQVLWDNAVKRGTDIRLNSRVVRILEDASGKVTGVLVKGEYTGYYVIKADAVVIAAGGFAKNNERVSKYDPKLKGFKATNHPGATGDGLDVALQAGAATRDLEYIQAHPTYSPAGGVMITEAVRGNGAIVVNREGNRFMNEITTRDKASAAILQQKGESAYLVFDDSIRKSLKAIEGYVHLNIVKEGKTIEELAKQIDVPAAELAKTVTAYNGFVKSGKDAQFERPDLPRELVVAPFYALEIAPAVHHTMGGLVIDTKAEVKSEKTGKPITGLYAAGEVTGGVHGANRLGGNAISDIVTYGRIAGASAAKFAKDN
Nature of the test: cyclic voltammetry, catalytic fumarate reduction current on membrane-modified gold electrode. As to conditions: 1 mM fumarate, 1% (w/w) MQ-7, pH 7.4, 21 °C; competitive quinol-site inhibitor.

The target of test [3] is T1, CymA. Nature of the test: cyclic voltammetry, dithionite as reductant. Particulars: 1 mM dithionite, pH 7.4, 21 °C, no Fcc3.
A further test has as its target T3, Fcc3 (Shewanella oneidensis, UniProt P83223).
T3 construct: gene fccA; monomer in solution; with Membrane anchored tetraheme cytochrome c CymA
T3 sequence (P83223 26-596): T2 sequence (P83223 26-596 partner)
T3 sequence (Q8E8S0 1-187 partner): T1 sequence (Q8E8S0 1-187)
Nature of the test: cyclic voltammetry, catalytic reduction current. As to conditions: 1 mM fumarate, electrons from MQ-7 via CymA, pH 7.4, 21 °C.

In test [4] the target is T2, CymA-Fcc3 complex. Nature of the test: cyclic voltammetry, membrane-modified gold electrode, MQ-7 content varied. As to conditions: fumarate 1 mM as acceptor, pH 7.4, 21 °C; MQ-7 in membrane as % (w/w); Michaelis-Menten fit, constant not given.

As to `CCCCCCCc1cc(O)c2ccccc2[n+]1[O-]` [2-n-heptyl-4-hydroxyquinoline N-oxide, 2-n-Heptyl-4-hydroxyquinoline N-oxide], the “inhibition at 10 μM” value on CymA [1] was “a catalytic oxidation signal appears that is inhibited by addition of HQNO”; at CymA-Fcc3 complex [2] it was “The addition of HQNO inhibited catalytic fumarate reduction (Figure 2B)”. Take `CC(C)=CCC/C(C)=C/CC/C(C)=C/CC/C(C)=C/CC/C(C)=C/CC/C(C)=C/CC/C(C)=C/CC1=C(C)C(=O)c2ccccc2C1=O` [Menaquinone-7]: at CymA [3], the “cyclic voltammetry, dithionite as reductant” value is on record as “CymA is only able to reduce MQ-7 in the absence of Fcc3”. For `O=C(O)/C=C/C(=O)O` [fumarate], on Fcc3, the “cyclic voltammetry, catalytic reduction current” value is listed as “addition of fumarate had a large effect on the appearance of the CV”. As for `CC(C)=CCC/C(C)=C/CC/C(C)=C/CC/C(C)=C/CC/C(C)=C/CC/C(C)=C/CC/C(C)=C/Cc1c(C)c(O)c2ccccc2c1O` [menaquinol-7], the “cyclic voltammetry, membrane-modified gold electrode, MQ-7 content varied” value on CymA-Fcc3 complex [4] is “the CymA-Fcc3 complex is able to oxidize MQ-7 in SSMs”.
